Experimental data as given in US20260125374A1, “PI3K-ALPHA INHIBITORS AND METHODS OF MAKING AND USING THE SAME” (Relay Therapeutics, Inc., priority 2021, published 2026).
“Also recorded” adds a separate entry of the source. Marks after values point to notes of the source that are not given here.

How the values were obtained:
Assay type in all cases: physicochemical
[1] = Solution stability at 25° C.; settings: for Chemical purity / Chiral purity / racemization in solution / chemical stability in solution: 25° C.; for Initial chiral purity: before dissolution; for racemization in solution / chemical stability in solution: methanol and THF/ACN (2:1, v/v), 4 mg/mL; for chemical stability in solution: at least 24 h
Protocol: Solution stability of I-1 Form A and I-3 Form A was investigated in methanol and THF/ACN (2:1, v/v) at 25° C. Target concentration is 4 mg/mL.
Accurate 4 mg of I-1 Form A, 5.13 mg of I-3 Form A was weighed into a 8 mL glass vial, respectively. The salt amount used is equivalent to 4 mg anhydrous free form.

[2] = Stability of I-1 solution during concentration (pH, temperature; chiral purity); settings: for Purity / ee %: 1N HCl; for ee %: start ee 98.43%
[3] = Investigation of factors impacting racemization
Description: Therefore, the factors impacting racemization were investigated including pH, temperature, molecular sieve and experimental duration. […] It is worth noted that racemization can be accelerated when solvents are pretreated by molecular sieve, since the pH value is shifted to basic after pretreatment.
During DSC test for I-1 Form A, different heating rates result in different thermal events. To investigate whether racemization occurs during heating, I-1 Form A was heated to different temperatures then obtained solids were tested by SFC.

[4] = Behavior under compression
Protocol: About 20 mg of I-1 Form A was compressed for 5 minutes at 2 MPa, 5 MPa and 10 MPa with a hydraulic press. XRPD characterization was performed to investigate the polymorphic behavior under compression.
About 20 mg of Form A was compressed for 5 minutes at 2 MPa, 5 MPa and 10 MPa with a hydraulic press. XRPD characterization was performed to investigate the polymorphic behavior under compression.

[5] = Light impact on chiral purity
Protocol: Four reactions were carried out to study the impact of light on chiral purity under neutral and basic condition.

[6] = Stability of III-1 & I-1 solid; settings: after 55 days; initial 99.2%
[7] = Investigation of I-3 Form A in different humidity (VH-XRPD, humidity chamber); settings: for form after humidity chamber (XRPD): 1 week
Protocol: According to the DVS result of I-3 Form A, two hydrate forms (a mono-hydrate, and a bis-hydrate) may exist when relative humidity is above 50% RH. Variable humidity XRPD (VH-XRPD) was investigated attempting to capture the potential hydrate(s).
To further evaluate form conversion of I-3 Form A, this salt was placed in different humidity (30% RH, 40% RH and 50% RH) chambers for 1 week.
I-3 Form A was used as starting material. One RH cycle was applied at 25° C. XRPD analysis was carried out in each specific relative humidity. Cycle: 39% RH (initial)-10% RH (2h)-40% RH (2h)-50% RH (2h)-70% RH (2h). Meanwhile, I-3 Form A was exposed to 30% RH, 40% RH and 50% RH chamber for 1 week. Samples were analyzed by XRPD using air tight container.

[8] = MeOH, 0 h, listed as I-1 Form A
[9] = MeOH, 6 h, listed as I-1 Form A
[10] = MeOH, 24 h, listed as I-1 Form A
[11] = THF/ACN(2:1, v/v), 0 h, listed as I-1 Form A
[12] = THF/ACN(2:1, v/v), 6 h, listed as I-1 Form A
[13] = THF/ACN(2:1, v/v), 24 h, listed as I-1 Form A
[14] = 10-20° C. MeOH, pH 4, stir for 4 h
[15] = after heating to 260° C. at 2° C./min by DSC
[16] = after heating to 300° C. at 2° C./min by DSC
[17] = MeOH, 0 h, listed as I-3 Form A
[18] = MeOH, 6 h, listed as I-3 Form A
[19] = MeOH, 24 h, listed as I-3 Form A
[20] = THF/ACN(2:1, v/v), 0 h, listed as I-3 Form A
[21] = THF/ACN(2:1, v/v), 6 h, listed as I-3 Form A
[22] = THF/ACN(2:1, v/v), 24 h, listed as I-3 Form A

N#Cc1c(-c2cc(NC(=O)c3cc(F)cc(C(F)(F)F)c3)c3c(c2)C(=O)N[C@H]3c2cc(F)ccc2Cl)ccc2ncnn12 [Compound I-1, (R)-N-(3-(2-chloro-5-fluorophenyl)-6-(5-cyano-[1,2,4]triazolo[1,5-a]pyridin-6-yl)-1-oxoisoindolin-4-yl)-3-fluoro-5-(trifluoromethyl)benzamide]
Chemical purity [1, 8]: 98.9%
Chiral purity [1, 8]: 98.9%
Chemical purity [1, 9]: 99.0%
Chiral purity [1, 9]: 98.9%
Chemical purity [1, 10]: 99.1%
Chiral purity [1, 10]: 98.9%
Chemical purity [1, 11]: 98.6%
Chiral purity [1, 11]: 98.9%
Chemical purity [1, 12]: 98.7%
Chiral purity [1, 12]: 98.9%
Chemical purity [1, 13]: 99.0%
Chiral purity [1, 13]: 98.9%
Initial chiral purity ([1]; listed as I-1 Form A): Initial chiral purity: 99.0%
racemization in solution [1]: no racemization
chemical stability in solution ([1]; listed as I-1 Form A): chemically stable
Purity [2, 14]: 99.53%
ee % [2, 14]: 98.33%
stability in solution ([2]; 10˜20° C. within 68 h): stable
ee % ([2]; 40-50° C. MeOH, pH 4, stir for 4 h): 98.38%
Purity ([2]; 40-50° C. MeOH, pH 4, stir for 68 h): 99.29%
ee %(SFC) ([3]; Batch #1 as received, SFC after preparation for 12 h): ee % (SFC): 97.7%#;
ee %(SFC) ([3]; Batch #1 as received, SFC immediately after preparation): ee % (SFC): 100.0%*
XRPD [3, 15]: XRPD: low crystallinity
ee %(SFC) [3, 15]: ee % (SFC): 88.1%*
ee %(SFC) ([3]; after heating to 270° C. at 2° C./min by DSC): ee % (SFC): 10.9%*
XRPD [3, 16]: XRPD: amorphous form
ee %(SFC) [3, 16]: ee % (SFC): 2.2%*
racemization during heating (DSC, solids tested by SFC) ([3]; certain high temperatures): racemization indeed occurred
racemization in different solvents ([3]; sped up by basic pH, high temperature, longer time, exposure to light): racemization easily occurs
XRPD peaks after compression [4]: slightly broader
form change under compression (XRPD) ([4]; 5 minutes at 2, 5 and 10 MPa): no form change
XRPD ([4]; compressed for 5 minutes at 2 Mpa): No form change, but peaks became slightly broader
XRPD ([4]; compressed for 5 minutes at 5 Mpa): No form change, but peaks became slightly broader
XRPD ([4]; compressed for 5 minutes at 10 Mpa): No form change, but peaks became slightly broader
ee % ([5]; Avoid light, basic (KOAc), 1 h): 97.91%
ee % ([5]; Avoid light, basic (KOAc), 6 h): 94.79%
ee % ([5]; Avoid light, basic (KOAc), 24 h): 80.92%
ee % ([5]; Avoid light, basic (KOAc), 96 h): 43.30%
ee % ([5]; Avoid light, neutral, 0 h): 98.96%
ee % ([5]; Avoid light, neutral, 6 h): 98.94%
ee % ([5]; Avoid light, neutral, 24 h): 98.96%
ee % ([5]; Avoid light, neutral, 96 h): 98.92%
ee % ([5]; Under light, basic (KOAc), 6 h): 94.35%
ee % ([5]; Under light, basic (KOAc), 24 h): 76.17%
ee % ([5]; Under light, basic (KOAc), 96 h): 30.84%
ee % ([5]; Under light, neutral, 6 h): 98.87%
ee % ([5]; Under light, neutral, 24 h): 97.15%
ee % ([5]; Under light, neutral, 96 h): 81.68%
ee % of product after stirring for 96 h ([5]; base system, avoid-light condition): 43.30%
ee % of product after stirring for 96 h ([5]; base system, under-light condition): 30.84%
ee % of product after stirring for 96 h ([5]; neutral system, avoid-light condition): almost unchanged
ee % of product after stirring for 96 h ([5]; neutral system, under-light condition): 81.68%
purity of solid after storage [6]: 99.2%

N#Cc1c(-c2cc(NC(=O)c3cc(F)cc(C(F)(F)F)c3)c3c(c2)C(=O)N[C@H]3c2cc(F)ccc2Cl)ccc2ncnn12 [Compound I-3]
form after humidity chamber (XRPD) ([7]; 30% RH): additional peaks belongs to Form B
form after humidity chamber (XRPD) ([7]; 40% RH and 50% RH): converted to I-3 Form B
I-3 Form B pattern in VH-XRPD ([7]; 50% RH, 25° C.): started to show up
form by VH-XRPD ([7]; 70% RH, 25° C.): fully converted to a new form, I-3 Form B
XRPD ([7]; Chamber, 25° C., 30% RH (1 week), air tight container for XRPD): I-3 Form A + 2Theta 17.5°
XRPD ([7]; Chamber, 25° C., 40% RH (1 week), air tight container for XRPD): I-3 Form B
XRPD ([7]; Chamber, 25° C., 50% RH (1 week), air tight container for XRPD): I-3 Form B
XRPD ([7]; VH-XRPD, 25° C., 10% RH (2 h)): I-3 Form A
XRPD ([7]; VH-XRPD, 25° C., 39% RH (initial)): I-3 Form A
XRPD ([7]; VH-XRPD, 25° C., 40% RH (2 h)): I-3 Form A
XRPD ([7]; VH-XRPD, 25° C., 50% RH (2 h)): I-3 Form A + 2Theta 17.3°
XRPD ([7]; VH-XRPD, 25° C., 70% RH (2 h)): I-3 Form B
Chemical purity [1, 17]: 99.3%
Chiral purity [1, 17]: 98.3%
Chemical purity [1, 18]: 99.3%
Chiral purity [1, 18]: 98.3%
Chemical purity [1, 19]: 99.4%
Chiral purity [1, 19]: 98.3%
Chemical purity [1, 20]: 99.2%
Chiral purity [1, 20]: 98.3%
Chemical purity [1, 21]: 99.3%
Chiral purity [1, 21]: 98.3%
Chemical purity [1, 22]: 99.4%
Chiral purity [1, 22]: 98.3%
Initial chiral purity ([1]; listed as I-3 Form A): Initial chiral purity: 98.6%
racemization in solution [1]: no racemization
chemical stability in solution ([1]; listed as I-3 Form A): chemically stable; also recorded: good solution stability
